Assay results: patent publication US20220133753A1, “COMPOSITIONS AND METHODS USEFUL FOR TREATING DISEASES CHARACTERIZED BY INSUFFICIENT PANTOTHENATE KINASE ACTIVITY” (Comet Therapeutics, Inc., priority 2016, published 2022)

Tests used:
[1] = system: primary human fibroblasts from healthy controls, MCAD deficiency and PA deficiency patients; test: Mitochondrial stress test (Seahorse), basal OCR of primary fibroblasts; format: cell-based; conditions: 24 h treatment
Source text: A study was thus performed to test the ability of S-acetyl-(S)-4′-phosphopantetheine to facilitate increased basal oxidative respiration in primary fibroblast cultures from patients diagnosed with MCAD deficiency and PA deficiency. Impaired metabolism were observed through functional measurements of respiration using a Seahorse XF Analyzer, where oxygen consumption rate (OCR) reflects oxidative respiration.
Patient derived cell lines were subject to a mitochondrial stress test according to standard protocol with a cell seeding density of 30 k cells/well (n=2) in glucose free media. After incubation with various concentrations of S-acetyl-4′-phosphopantetheine or vehicle for 24 h, rescue potential was assessed by increase in basal OCR (average of six readings between 30-70 min), relative to control: basal OCR from vehicle treatment was set to 1.0. […] Experiment was performed in two replicates: systematically outlying values caused by seeding errors, port failures, or values within background were excluded from analysis.

[2] = system: CG34404 down-regulated drosophila; format: in vivo
Source text: (§1) The drosophila gene CG34404 is considered to be a good ortholog of both MCCC1 and MCCC2, as determined by Fly DIOPT (DRSC Integrative Ortholog Prediction Tool). RNAi approaches are an established method of modelling various diseases, and the KK stock library at the Vienna Drosophila Resource Centre (VDRC) contains a knock-down strain for CG34404 (VDRC ID 103335). Down-regulation of CG34404 by RNAi, causes developmental delay.
Five virgin females from UAS-KK 103335 (RNAi knock-down of CG34404) and ten virgin males from Act5C-GAL4 (heterozygous RNAi expression driver line with CyO balancer) were crossed, and allowed to lay for a period of 24 h in vials containing drosophila media with and without S-acetyl-4′-phosphopantetheine. Rescue potential was assessed by the number of eclosed male mutant or control flies every 6 h, as a percentage of total eclosed flies of each genotype, expressed as the AAUC (calculated by trapezium rule) of the cumulative eclosion relative to the control strain, as shown in FIG. 22A. Further, the region of relative AUCs are plotted in FIG. 22B under treatment conditions.

[3] = system: MCAD patient fibroblast cell lines; test: Mitochondrial stress test (Seahorse), reserve capacity of MCAD patient fibroblasts; format: cell-based, human; conditions: MCAD fibroblasts, relative to vehicle treated control
Source text: Medium-chain acyl-CoA dehydrogenase (MCAD) deficiency is a condition in which the body's capacity to break down fats with medium chain lengths is impaired, caused by mutations in the ACADM gene, which can lead to hypoglycaemia, and liver dysfunction. Left untreated, it can lead to seizures, coma and other serious health problems, with acute symptoms often preceded by extended periods of fasting or an infection with vomiting. Impaired metabolism were observed through functional measurements of respiration using a Seahorse XF Analyzer, where oxygen consumption rate (OCR) reflects oxidative respiration.
A study was performed to test the Rescue potential of S-acetyl-4′-phosphopantetheine in primary patient fibroblast model of MCAD deficiency. MCAD patient fibroblast cell lines (genotyped as containing homozygous K304E mutations in ACADM) were subject to a mitochondrial stress test according to standard protocol with a cell seeding density of 30 k cells/well (n=2). Rescue potential was assessed by increase in reserve capacity: defined as the difference between basal and maximal OCR, controlled by subtracting values for non-mitochondiral respiration (after rotenone treatment). The study was performed in two replicates.

[4] = system: RNAi knock-down of CG7461 drosophila; test: Drosophila model of VLCAD deficiency, survival in starvation; format: in vivo; conditions: 5 mM, fed for 24 h
Source text: as §1, with “CG7461” for “CG34404”, “ACADVL,” for “both MCCC1 and MCCC2,”, “GD” for “KK”, “28028).” for “103335).”, “results in reduced viability when metabolically challenged with starvation.” for “causes developmental delay.”
Five virgin females from Act5C-GAL4 (RNAi expression driver line) and ten virgin males from UAS-GD 28028 (RNAi knock-down of CG7461) were crossed, to generate mutant progeny. In a similar manner, control flies were generated for the RNAi driver line (Gal4 control: Act5C-GAL4×GD 60000) and the upstream activating sequence (UAS control: UAS-GD 28028×Iso 31). From their offspring, 3-day old adult flies were allowed to feed for 24 h on glucose with and without 5 mM (S)-acetyl-4′-phosphopantetheine, then incubated on 2% agar medium without media. Dead flies were counted every 6 hours (up 90 hours) to obtain % survival over time. Rescue potential was assessed by the ability to survive in starvation conditions, expressed as the area under the curve (calculated by trapezium rule) of the cumulative frequency, relative to each control strain.

Drosophila S2 cells = test: HoPan treatment of Drosophila S2 cells in combination with CoA or 4′-phosphopantetheine; format: cell-based; conditions: HoPan treated S2 cells
Description: HoPan treatment of Drosophila S2 Cell in combination with CoA or 4′-phosphopantetheine treatment: Drosophila Schneider's S2 cells were maintained at standard conditions as explained above. Cells in the exponential phase of growth were used for all the experiments. Different indicated concentrations of CoA or 4′-phosphopantetheine (deuterium labelled PPanSH(D4) or unlabeled PPanSH) were added to S2 cells either in the presence or absence of 0.5 mM HoPan (Zhou Fang Pharm Chemical, China) for 48 h. Similarly, Drosophila S2 cells were treated with different concentrations of PPanSH(D4) at either 25° C. or 4° C. and cells were then harvested at various time points to access transport of PPanSH(D4). Stable isotope labelled PPanSH containing 4 deuterium atoms was purchased from Syncom (Groningen, The Netherlands) as a sodium salt (chemical structure is provided in FIG. 13A). As a read out cell count, intracellular total CoA and PPanSH levels (both labelled and unlabeled levels wherever appropriate) and histone acetylation levels were analyzed as explained below.
(§2) Drosophila S2 Cell Immunofluorescence Staining: For immunofluorescence Drosophila S2 cells were seeded on Poly-L-Lysine coated (Sigma-Aldrich) glass microscope slides and allowed to settle for 45 min. Cells were fixed with 3.7% formaldehyde (Sigma Aldrich) for 20 min, washed briefly with PBS+0.1% Triton-X-100 (Sigma Aldrich) and permeabilized with PBS+0.2% Triton-X-100 for 20 min. The slides were incubated in primary antibody (rabbit anti-AcLys, Cell Signaling Cat No: 9441, 1:500) to visualize histone acetylation levels in PBS+0.1% Triton-X-100 overnight and after an additional washing step in PBS+0.1% Triton-X-100 they were incubated in secondary goat anti-rabbit-Alexa488 antibody (Molecular Probes) for two hours at room temperature (RT). F-actin was detected with Rhodamin-Phalloidin (20 U/ml)(Invitrogen) and DNA by staining with DAPI (0.2 ug/ml) (Thermo Scientific). Finally the samples were mounted in 80% glycerol and analyzed using a Leica fluorescence microscope with Leica software. Adobe Photoshop and Illustrator (Adobe Systems Incorporated, San Jose, Calif., USA) were used for image assembly.

HEK293 cells = test: HoPan treatment of mammalian HEK293 cells in combination with CoA or 4′-phosphopantetheine; format: cell-based, human; conditions: HoPan treated HEK293 cells, compound added to the medium
Description: HoPan treatment of mammalian HEK293 Cells in combination with CoA and 4′-phosphopantetheine treatment: HEK293 cells were maintained in dMEM (Invitrogen) supplemented with 10% fetal calf serum (Gibco) and antibiotics (penicillin/streptomycin, Invitrogen). For HoPan treatment, cells were cultured in custom made dMEM without vitamin B5 (Thermo Scientific) supplemented with dialyzed FCS (Thermo Scientific). CoA or PPanSH was added to HEK293 cells for the final concentration of 25 uM, either in the presence or absence of HoPan (0.5 mM) for 4 days, followed by analysis for phenotype and rescue efficiency of CoA and PPanSH.
Western blot analysis and Antibodies: For Western blot analysis, cells were collected and washed with phosphate buffer saline (PBS), followed by centrifugation. The cells were lysed and sonicated in 1X Laemmli Sample Buffer and boiled for 5 min with 5% β-mercaptoethanol (Sigma). Protein content was determined using DC protein assay (BioRad). Equal amounts of protein were loaded on a 10 or 12.5% SDS-PAGE gel, transferred onto PVDF membranes and blocked with 5% milk in PBS/0.1% Tween, followed by overnight incubation with primary antibodies. The primary antibodies used were: rabbit-anti dPANK/fbl, 1:4000 Eurogentec custom made as described previously5, mouse anti-tubulin (Sigma Aldrich Cat no: T5168, 1:5000), anti-acetyl-Histone3 (Active Motif Cat no: 39139, 1:2000), anti GAPDH (Fitzgerald Cat no: 10R-G109a, 1:10000), rabbit anti COASY (Abcam Cat no: AB129012, 1:1000). Appropriate HRP-conjugated secondary antibodies (Amersham) were used and detection was performed using enhanced chemi-luminescence (Pierce cat nog: 32106) and Amersham hyperfilm (GE Healthcare). Band intensities were quantified with Image-studio software.

[5] = system: dPANK/fbl RNAi treated Drosophila S2 cells; test: dPANK/fbl RNA interference in Drosophila S2 cells, rescue by CoA or 4′-phosphopantetheine; format: cell-based; conditions: compound added to the medium; for histone (protein) acetylation of dPANK/fbl RNAi treated S2 cells: immunofluorescence
Description: Drosophila S2 Cell Culture, RNA Interference, and CoA and 4′-phosphopantetheine treatment: Drosophila Schneider's S2 cells were maintained at 25° C. in Schneider's Drosophila medium (Invitrogen) supplemented with 10% heat inactivated fetal calf serum (Gibco) and antibiotics (penicillin/streptomycin, Invitrogen) under laboratory conditions. Synthesis of RNAi constructs and RNA interference (dsRNA) treatment was carried out as described previously (Siudeja K et al, EMBO Mol Med 3, 755-766 (2011)). Non-relevant (human gene; hMAZ) dsRNA was used as control. The cells were incubated for 4 days to induce an efficient knock-down. Cells were then subcultured, with or without CoA (Sigma-Aldrich, Cat. No: C4780—which is used for all the experiments wherever stated below) or 4′-phosphopantetheine (PPanSH) at different concentrations and were maintained for additional 3 days until analysis for rescue efficiency of the compounds was performed. The stock solutions of compounds were made in sterile water and stored in −20° C. until use.
as §2

[6] = Stability of CoA in PBS, medium and fetal calf serum by HPLC; conditions: formed from CoA in serum, time course of 6 hours
Description: HPLC sample preparation protocol for total CoA and 4′-phosphopantetheine measurement: Samples were briefly washed with ice-cold PBS solution. Samples were sonicated thoroughly in 100 μl ice-cold PBS and centrifuged for 10-15 min at 4° C. to collect supernatant. Tris(2-carboxyethyl)phosphine hydrochloride (Sigma) (50 mM; 10 ul) was added to 50 μl sample supernatant and were incubated at room temperature for 15 min after vortex-mixing. Saturated ammonium sulfate solution or Millipore 3KD centrifugal filter units were used to remove proteins. The samples were centrifuged at 14,000 rpm for 15 min at 4° C. The clear supernatant (50 ul) or the filtrate was derivatized with 45 ul of ammonium 7-flurobenzo-2-oxa-1,3-doazole-4-sulfonate (SBD-F, Sigma) (1 mg/ml in borax buffer—0.1M containing 1 mM EDTA disodium, pH 9.5), and 5 ul ammonia solution (12.5% v/v, Merck Millipore) at 60° C. for 1 h. The derivatized samples were placed in a refrigerated autosampler (10° C.) in the Shimadzu HPLC system, and injected for total CoA and PPanSH analysis using optimized chromatographic separation conditions combined with fluorescence detection (described below).
Chromatography separation condition: Chromatographic analysis was performed with a Shimadzu LC-10AC liquid chromatograph, SCL-10A system controller, SIL-10AC automatic sample injector and LC-10AT solvent delivery system. Shimadzu RF-20Axs fluorescence detector was used for derivatized sample extract analysis. The fluorescence detector was set at excitation and emission wavelengths of 385 nm and 515 nm, respectively. Signal output was collected digitally with Shimadzu Labsolution software and post run analysis was performed. […] The two mobile phases consisted of A: 100 mM ammonium acetate buffer (pH 4.5) and B: acetonitrile. Flow rate was maintained at 0.8 ml/min with a slow gradient elution: 0% B till 7 min, 20% B at 20 min, 20% B at 22 min, 50% B at 23 min, maintained at 50% B till 27 min, 0% B at 28 min and 7-10 min for column re-equilibration.
The stability of CoA in PBS, serum-free medium, medium containing fetal calf (FCS) serum and in fetal calf serum was measured.

stability of 4′-phosphopantetheine in serum [6] | Compound | effect on basal OCR in patient fibroblasts compared with healthy controls ([1]; MCAD and PA patient fibroblasts) | basal OCR levels ([1]; primary fibroblasts, relative to vehicle controls) | reduction of the observed developmental delay ([2]; 2 mM in drosophila media) | toxicity in drosophila ([2]; in vivo) | spare respiratory capacity (reserve capacity) [3] | ability to survive starvation relative to control flies (AUC of cumulative survival) [4] | ability to survive starvation relative to control flies (AUC of cumulative survival) ([4]; listed as (S)-acetyl-4′-phosphopantetheine) | rescue of HoPan-induced decrease in cell count (Drosophila S2 cells; compound added to the medium) | rescue of HoPan-induced histone acetylation defect (Drosophila S2 cells; compound added to the medium) | rescue of HoPan-induced histone acetylation defect (Drosophila S2 cells; compound added to the medium, listed as PpanSH) | intracellular levels of 4′-phosphopantetheine (Drosophila S2 cells; external supplementation, HPLC) | rescue of HoPan-induced impaired histone acetylation (HEK293 cells) | rescue of HoPan-induced reduction in cell count (HEK293 cells) | intracellular CoA level (HEK293 cells; HPLC) | cell count of dPANK/fbl RNAi treated S2 cells [5] | histone (protein) acetylation of dPANK/fbl RNAi treated S2 cells [5] | histone (protein) acetylation of dPANK/fbl RNAi treated S2 cells ([5]; listed as PpanSH)
 | S-acetyl-4′-phosphopantetheine | observed more strongly | consistently elevated | 27 cumulative fly days | some toxicity | improved spare respiratory capacity | partially recovered towards control levels | partially recovered |  |  |  |  |  |  |  |  |  | 
stable | CC(C)(COP(=O)(O)O)[C@@H](O)C(=O)NCCC(=O)NCCS [4′-phosphopantetheine] |  |  |  |  |  |  |  | rescued | rescued the histone acetylation defect | rescues acetylation defects | significantly increased | rescued | rescued | rescued | rescued | rescued the histone acetylation defect | rescues acetylation defects
